Measurements taken from patent US20230159569A1, “DUAL HDAC6/PROTEASOME INHIBITORS, AND METHODS OF USE THEREOF” (UNIVERSITY OF MARYLAND, BALTIMORE, priority 2021, published 2023).

Tests used:
[1] = molecular target: T1, HDAC6 (Homo sapiens, UniProt Q9UBN7); test: HDAC activity assay (microfluidics mobility shift), HDAC6; format: biochemical; conditions: for IC50 / HDAC1/HDAC6 (HDAC1 IC50/HDAC6 IC50, selectivity for HDAC6): covalent dual inhibitors; for inhibition at 1 µM: compound concentration 1 μM, non-covalent dual inhibitors
T1 sequence (Q9UBN7 1-1215): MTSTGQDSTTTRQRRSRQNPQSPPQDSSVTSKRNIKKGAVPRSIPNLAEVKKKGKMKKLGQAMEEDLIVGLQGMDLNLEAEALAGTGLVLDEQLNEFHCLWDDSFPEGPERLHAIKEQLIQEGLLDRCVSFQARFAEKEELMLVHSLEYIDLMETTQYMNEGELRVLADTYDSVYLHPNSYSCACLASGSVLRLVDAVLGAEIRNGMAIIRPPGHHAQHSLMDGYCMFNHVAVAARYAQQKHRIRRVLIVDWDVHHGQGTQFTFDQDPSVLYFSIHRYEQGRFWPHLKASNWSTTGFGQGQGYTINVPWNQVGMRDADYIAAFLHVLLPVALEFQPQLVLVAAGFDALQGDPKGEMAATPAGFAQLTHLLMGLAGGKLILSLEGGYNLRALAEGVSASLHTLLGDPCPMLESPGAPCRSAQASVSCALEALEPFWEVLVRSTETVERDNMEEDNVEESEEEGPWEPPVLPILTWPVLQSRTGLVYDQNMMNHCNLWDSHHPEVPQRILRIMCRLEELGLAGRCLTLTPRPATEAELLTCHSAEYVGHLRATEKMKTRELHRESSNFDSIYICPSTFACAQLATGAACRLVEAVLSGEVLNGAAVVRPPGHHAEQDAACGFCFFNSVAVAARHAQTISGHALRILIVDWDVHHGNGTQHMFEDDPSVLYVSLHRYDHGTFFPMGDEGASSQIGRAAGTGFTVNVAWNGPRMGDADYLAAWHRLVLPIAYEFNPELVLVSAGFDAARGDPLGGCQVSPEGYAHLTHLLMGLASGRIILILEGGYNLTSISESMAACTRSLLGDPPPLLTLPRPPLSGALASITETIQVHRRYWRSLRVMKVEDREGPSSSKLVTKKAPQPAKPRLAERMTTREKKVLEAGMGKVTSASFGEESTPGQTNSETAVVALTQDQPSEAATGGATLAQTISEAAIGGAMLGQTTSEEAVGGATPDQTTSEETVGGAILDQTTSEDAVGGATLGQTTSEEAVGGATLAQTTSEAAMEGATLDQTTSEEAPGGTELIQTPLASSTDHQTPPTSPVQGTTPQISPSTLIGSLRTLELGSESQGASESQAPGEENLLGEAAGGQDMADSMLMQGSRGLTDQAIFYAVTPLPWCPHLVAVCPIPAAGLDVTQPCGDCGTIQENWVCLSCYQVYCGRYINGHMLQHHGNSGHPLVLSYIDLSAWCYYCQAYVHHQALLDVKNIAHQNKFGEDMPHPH
Protocol: (§1) HDAC ACTIVITY ASSAYS: HDAC activity is measured using a microfluidics mobility shift platform. A fluorescently labeled substrate is reacted with the enzyme along with addition of test compounds followed by reading through microfluidic chips. Enzyme activity is determined through quantitative comparison of the […] that results from enzymatic activity.
(§2) The concentration of each non-covalent inhibitor compound tested in this study was 1 μM.

[2] = molecular target: HDAC1 (Homo sapiens, UniProt Q13547); test: HDAC activity assay (microfluidics mobility shift), HDAC1; format: biochemical; conditions: compound concentration 1 μM; non-covalent dual inhibitors
Sequence of HDAC1 (Q13547 whole entry): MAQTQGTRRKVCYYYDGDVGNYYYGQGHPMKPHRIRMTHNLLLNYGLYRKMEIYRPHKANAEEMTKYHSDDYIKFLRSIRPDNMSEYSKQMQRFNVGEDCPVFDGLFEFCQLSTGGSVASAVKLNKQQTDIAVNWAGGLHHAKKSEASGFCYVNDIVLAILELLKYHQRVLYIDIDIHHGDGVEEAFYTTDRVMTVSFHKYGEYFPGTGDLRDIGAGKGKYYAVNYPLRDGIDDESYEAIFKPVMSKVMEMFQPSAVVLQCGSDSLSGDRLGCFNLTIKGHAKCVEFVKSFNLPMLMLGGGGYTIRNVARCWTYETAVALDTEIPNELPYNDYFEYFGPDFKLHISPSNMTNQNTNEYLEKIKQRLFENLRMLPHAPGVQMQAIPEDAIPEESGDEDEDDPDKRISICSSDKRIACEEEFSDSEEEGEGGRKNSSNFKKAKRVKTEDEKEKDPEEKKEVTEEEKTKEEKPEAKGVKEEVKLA
Protocol: as §1, §2

SMILES | IC50 [1] | inhibition at 1 µM [1] | inhibition at 1 µM [2] | HDAC1/HDAC6 (HDAC1 IC50/HDAC6 IC50, selectivity for HDAC6) [1] | potency and selectivity for HDAC6 ([1]; FIG. 11, fold improvement over HDAC1 inhibition)
CC(C)C[C@H](NC(=O)[C@H](Cc1ccccc1)NC(=O)c1ccc(C(=O)NOC2CCCCO2)cc1)B1OC2C[C@H]3C[C@H](C3(C)C)[C@@]2(C)O1 (stereo partly drawn) [AMC-2-248] | > 30000 nM | – | – | – | –
COC(=O)c1ccc(C(=O)N[C@@H](CC(=O)NCC(C)(C)C)C(=O)N[C@@H](C)C(=O)NCc2ccc(F)cc2F)cc1 [AMC-2-152] | – | 18% | 3% | – | –
CC(C)C[C@H](NC(=O)[C@H](Cc1ccccc1)NC(=O)c1ccc(/C=C/C(=O)NO)cc1)B1OC2C[C@H]3C[C@H](C3(C)C)[C@@]2(C)O1 (stereo partly drawn) [AMC-3-041] | 61 nM | – | – | 0.93 | –
CC(C)C[C@H](NC(=O)CNC(=O)c1ccc(C(=O)NOC(=O)Nc2ccccc2)cc1)B1OC2C[C@H]3C[C@H](C3(C)C)[C@@]2(C)O1 (stereo partly drawn) [AMC-3-030] | 884 nM | – | – | >33.9 | –
C[C@H](NC(=O)[C@H](CC(=O)NCC(C)(C)C)NC(=O)c1ccc(C(=O)O)cc1)C(=O)NCc1ccc(F)cc1F [AMC-2-225] | – | 4% | -3% | – | –
CCNC(=O)ONC(=O)c1ccc(C(=O)N[C@@H](Cc2ccccc2)C(=O)N[C@@H](CC(C)C)B2OC3C[C@H]4C[C@H](C4(C)C)[C@@]3(C)O2)cc1 (stereo partly drawn) [AMC-3-019] | 8120 nM | – | – | >3.69 | –
COC(=O)CCCCCCC(=O)N[C@@H](CC(=O)NCC(C)(C)C)C(=O)N[C@@H](C)C(=O)NCc1ccc(F)cc1F [AMC-2-198] | – | 8% | 1% | – | –
CCNC(=O)ONC(=O)c1ccc(C(=O)NCC(=O)N[C@@H](CC(C)C)B2OC3C[C@H]4C[C@H](C4(C)C)[C@@]3(C)O2)cc1 (stereo partly drawn) [AMC-3-048] | 5380 nM | – | – | >5.58 | –
C[C@H](NC(=O)[C@H](CC(=O)NCC(C)(C)C)NC(=O)CCC(=O)Nc1ccc(C(=O)NO)cc1)C(=O)NCc1ccc(F)cc1F [AMC-2-036] | – | 95% | 61% | – | highly potent
CC(C)C[C@H](NC(=O)CNC(=O)c1ccc(C(=O)NOC(=O)NCc2ccccc2)cc1)B1OC2C[C@H]3C[C@H](C3(C)C)[C@@]2(C)O1 (stereo partly drawn) [AMC-3-047] | 3420 nM | – | – | 8.77 | –
C[C@H](NC(=O)[C@H](CC(=O)NCC(C)(C)C)NC(=O)c1ccc(C(=O)Nc2ccccc2N)cc1)C(=O)NCc1ccc(F)cc1F [AMC-2-091] | – | 13% | 65% | – | –
C[C@H](NC(=O)[C@H](CC(=O)NCC(C)(C)C)NC(=O)C(=O)c1c[nH]c2ccccc12)C(=O)NCc1ccc(F)cc1F [AMC-2-052] | – | 59% | 41% | – | –
CC(C)C[C@H](NC(=O)[C@H](Cc1ccccc1)NC(=O)c1ccc(C(=O)NOC(=O)NCc2ccccc2)cc1)B1OC2C[C@H]3C[C@H](C3(C)C)[C@@]2(C)O1 (stereo partly drawn) [AMC-3-033] | 6320 nM | – | – | 4.75 | –
CC(C)C[C@H](NC(=O)CNC(=O)c1ccc(C(=O)NO)cc1)B1OC2C[C@H]3C[C@H](C3(C)C)[C@@]2(C)O1 (stereo partly drawn) [AMC-3-031] | 258 nM | – | – | 20.4 | –
C[C@H](NC(=O)[C@H](CC(=O)NCC(C)(C)C)NC(=O)CCCCCCC(=O)NO)C(=O)NCc1ccc(F)cc1F [AMC-2-067] | – | 86% | 74% | – | –
CC(C)C[C@H](NC(=O)[C@H](Cc1ccccc1)NC(=O)c1ccc(C(=O)NO)cc1)B1OC2C[C@H]3C[C@H](C3(C)C)[C@@]2(C)O1 (stereo partly drawn) [AMC-3-017] | 198 nM | – | – | 14.3 | –
C[C@H](NC(=O)[C@H](CC(=O)NCC(C)(C)C)NC(=O)CCCCCCC(=O)O)C(=O)NCc1ccc(F)cc1F [AMC-2-204] | – | 8% | 3% | – | –
CCNC(=O)ONC(=O)/C=C/c1ccc(C(=O)NCC(=O)N[C@@H](CC(C)C)B2OC3C[C@H]4C[C@H](C4(C)C)[C@@]3(C)O2)cc1 (stereo partly drawn) [AMC-3-055] | 1150 nM | – | – | 2.30 | –
